We go through four compounds from patent US20250205168A1, “METHOD FOR PRODUCING NUCLEIC ACID-ENCAPSULATED LIPID NANOPARTICLES, METHOD FOR PRODUCING PHARMACEUTICAL COMPOSITION CONTAINING SAID LIPID NANOPARTICLES, AND METHOD FOR INTRODUCING NUCLEIC ACID INTO CELL OR TARGET CELL” (NOF Corporation, priority 2022, published 2025).

Data set [1] can be described thus: mRNA encapsulation rate (Ribogreen assay). The settings on record: 37° C. 5 min. Type of data set: physicochemical. As for the experimental part:
The particle size, polydispersity index (PdI), and mRNA encapsulation rate of the obtained nucleic acid-encapsulated nanoparticles were analyzed. The particle size and PdI were measured by the dynamic light scattering method using a Zetasizer (registered trademark). The mRNA encapsulation rate was measured by the Ribogreen (registered trademark) assay. […]
The particle size, polydispersity index (PdI), and mRNA encapsulation rate of the obtained nucleic acid-encapsulated nanoparticles were analyzed. The particle size and PdI were measured by the dynamic light scattering method using a Zetasizer (registered trademark). The mRNA encapsulation rate was measured by the Ribogreen (registered trademark) assay. As a result, mRNA was encapsulated at any incubation temperature, and no difference in the encapsulation rate was observed. The particle size of the obtained nucleic acid-encapsulated nanoparticles tended to increase with increasing incubation temperature (see FIG. 24 and FIG. 25).
The particle size, polydispersity index (PdI), and mRNA encapsulation rate of the obtained nucleic acid-encapsulated nanoparticles were analyzed. The particle size and PdI were measured by the dynamic light scattering method using a Zetasizer (registered trademark). The mRNA encapsulation rate was measured by the Ribogreen (registered trademark) assay. As a result, the encapsulation rate of mRNA tended to decrease with increasing salt concentration of the buffer (see FIG. 34 and FIG. 35).
The particle size, polydispersity index (PdI), and mRNA encapsulation rate of the obtained nucleic acid-encapsulated nanoparticles were analyzed. The particle size and PdI were measured by the dynamic light scattering method using a Zetasizer (registered trademark). The mRNA encapsulation rate was measured by the Ribogreen (registered trademark) assay. As a result, mRNA was encapsulated (see Table 5).
The particle size, polydispersity index (PdI), and mRNA encapsulation rate of the obtained nucleic acid-encapsulated nanoparticles or nucleic acid-encapsulated nanoparticles prepared by freeze-dry technique in Comparative Example 1 were analyzed. The particle size and PdI were measured by the dynamic light scattering method using a Zetasizer (registered trademark). The mRNA encapsulation rate was measured by the Ribogreen (registered trademark) assay. […] In addition, the particle size of the nucleic acid-encapsulated nanoparticles was smaller than that of nucleic acid-encapsulated nanoparticles produced by the freeze-dry technique (see FIG. 14 and FIG. 15).
The particle size, polydispersity index (PdI), and mRNA encapsulation rate of the obtained nucleic acid-encapsulated nanoparticles or nucleic acid-encapsulated nanoparticles prepared by freeze-dry technique in Comparative Example 2, Comparative Example 3 were analyzed. The particle size and PdI were measured by the dynamic light scattering method using a Zetasizer (registered trademark). The mRNA encapsulation rate was measured by the Ribogreen (registered trademark) assay. […] In addition, the particle size of the nucleic acid-encapsulated nanoparticles was smaller than that of nucleic acid-encapsulated nanoparticles produced by the freeze-dry technique (see FIG. 36 and FIG. 37). In FIG. 36, FIG. 37 and FIG. 38, Comparative Example 2 in which the total flow rate during preparation of lipid nanoparticles was 1 mL/min, is shown as “freeze-dry (FR=1)”, and Comparative Example 3, in which the total flow rate was 16 mL/min, is shown as “freeze-dry (FR=16)”.
The particle size, polydispersity index (PdI), and mRNA encapsulation rate of the obtained nucleic acid-encapsulated nanoparticles (liquid) or nucleic acid-encapsulated nanoparticles produced using a microfluidic channel (MF) (LNP prepared with the same lipid composition and using MES buffer (20 mM, pH 6.5) containing nucleic acid and an ethanol solution of lipid) were analyzed. […]

The next data set concerns HeLa cells. Nature of the data set: nucleic acid introduction into HeLa cells, luciferase luminescence (Steady-Glo, GloMax 20/20 luminometer). Type of data set: cell-based. Conditions: Example 10, particles produced using SS-OP, after 13 hr. As for the experimental part: The nucleic acid-encapsulated nanoparticles obtained were applied to HeLa cells to evaluate the nucleic acid introduction efficiency. HeLa cells were seeded in D-MEM medium (high glucose) (containing L-glutamine and phenol red) (containing 10% FBS and 1% penicillin-streptomycin solution added) at 5×10^3 cells/100 μL in a 96-well flat-bottom transparent plate. The obtained nucleic acid-encapsulated particles were added such that the nucleic acid concentration in the medium was 0.02 μg/4 μL. After 16 hr, the amount of luciferase protein introduced was evaluated using the amount of luminescence. 100 μL of Steady-Glo (registered trademark) was added, and the cells were lysed by shaking for 5 min, and the amount of luminescence was quantified using a GloMax 20/20 luminometer. As a result, the introduction of luciferase protein was confirmed at any incubation temperatures, and no difference in in vitro activity was observed.
The nucleic acid-encapsulated nanoparticles obtained were applied to HeLa cells and the nucleic acid introduction efficiency was evaluated. […] After 13 hr, the amount of luciferase protein introduced was evaluated using the amount of luminescence. 100. μL of Steady-Glo (registered trademark) was added, and the cells were lysed by shaking for 5 min, and the amount of luminescence was quantified using a GloMax 20/20 luminometer. […]

Data set [2] is described as follows: Zeta potential by electrophoretic light scattering (Zetasizer). Type of data set: physicochemical. The settings on record: Example 10; particles produced using SS-OP at pH and pH 5.5 compared to pH 6, pH 6.5 and pH 7; measured in MES pH 5-7. The procedure:
Among the obtained nucleic acid-encapsulated nanoparticles, the particles produced using SS-OP were analyzed for Zeta potential. Zeta potential was measured by the electrophoretic light scattering method using Zetasizer (registered trademark) and using MES buffer (pH 5, pH 5.5, pH 6, pH 6.5 or pH 7).

Where [3] appears, read: Example 4, LNP in MES pH 5, 5.5, 6, 6.5 or 7, mRNA 1.5 μg/135 μL.
[4] abbreviates: Example 10, LNP and mRNA (3 μg/135 μL) in MES pH 5, 5.5, 6, 6.5 or 7.

The structures appear in SMILES notation. “Also recorded” adds a separate entry of the source.

For the compound `CCCCCCCC/C=C\CCCCCCCC(=O)OCC(CN(C)C)OC(=O)CCCCCCC/C=C\CCCCCCCC` (stereo not shown) [DODAP, 1,2-dioleoyloxy-3-dimethylaminopropane, reference compound], the “encapsulation rate at higher pH, in words” value (“encapsulation rate” for short) in data set [1] (setting [3]) is “decreased at pH 6, pH 6.5, and pH 7”; in data set [1] (setting [4]), “decreased at pH 6.5 and pH 7”.

Regarding `CCCCCC=CCC=CCCCCCCCCC(CCCCCCCCC=CCC=CCCCCC)OC(=O)CCCN(C)C` (stereo not shown) [MC3, heptatriaconta-6,9,28,31-tetraen-19-yl-4-(dimethylamino)butanoate, reference compound], the “encapsulation rate” value was “decreased at pH 6.5 and pH 7” in data set [1] (setting [3]); “decreased at pH 6.5 and pH 7” in data set [1] (setting [4]).

`CCCCCCCC/C=C\CCCCCCCC(=O)OCCC1CCN(CCSCSCCN2CCC(CCOC(=O)CCCCCCC/C=C\CCCCCCCC)CC2)CC1` [SS-OC]: the “encapsulation rate” value in data set [1] (setting [3]) is “decreased at pH 6, pH 6.5, and pH 7”; in data set [1] (setting [4]), “decreased at pH 6.5 and pH 7”.

Regarding `CCCCCCCC/C=C\CCCCCCCC(=O)Oc1ccc(CC(=O)OCCC2CCN(CCSSCCN3CCC(CCOC(=O)Cc4ccc(OC(=O)CCCCCCC/C=C\CCCCCCCC)cc4)CC3)CC2)cc1` [SS-OP], in the data set on HeLa cells, the “in vitro activity (luciferase luminescence) by pH of production, in words” value is “highest in vitro activity was observed at pH 6; also recorded: slightly decreasing at pH 6.5; also recorded: low activity was observed at pH 5, pH 5.5, and pH 7”. Further, the “Zeta potential, in words” value in data set [2] is listed as “higher values in a low pH environment”. The “encapsulation rate” value in data set [1] (setting [3]) is “decreased at pH 6.5 and pH 7”; in data set [1] (setting [4]), “decreased at pH 6.5 and pH 7”.
